Assay results from ChEMBL document CHEMBL1201862, “PubChem BioAssay data set” (2004).
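Step 1: Grow cells in 96-well plates. Step 2: Expose to compound for 48 hours at 5 concentrations. Step 3: Interpolate endpoints linearly; if unreached, use highest concentration. GI50 = concentration required for 50% inhibition of growth.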 Active and inactive are the calls of the source. No stated cut-off is given here; in the data, active = GI50 up to about 1.1 µM and inactive = higher.

How the values were obtained:
Experiment in all cases: DTP human tumour cell line panel, 48 h
[1] = system: A549
[2] = system: BT-549
[3] = system: CAKI-1
[4] = system: EKVX
[5] = system: HCT-116
[6] = system: K562
[7] = system: LOX IMVI
[8] = system: M14
[9] = system: MDA-N
[10] = system: MOLT-4
[11] = system: NCI-H23
[12] = system: OVCAR-3
[13] = system: OVCAR-4
[14] = system: OVCAR-5
[15] = system: SF-268
[16] = system: SF-295
[17] = system: SNB-75
[18] = system: SR
[19] = system: TK-10
[20] = system: UACC-62

CN(C)c1ccc(/C=C2\C[C@H]3[C@@H]4CCc5cc(OCCN6CCCC6)ccc5[C@H]4CC[C@]3(C)[C@H]2O)cc1
GI50 [1]: 6.32 µM (inactive) | GI50 [2]: 16 µM (inactive) | GI50 [3]: 13.9 µM (inactive) | GI50 [4]: 15 µM (inactive) | GI50 [5]: 2.71 µM (inactive) | GI50 [6]: 4.74 µM (inactive) | GI50 [7]: 7.08 µM (inactive) | GI50 [8]: 4.27 µM (inactive) | GI50 [9]: 14.8 µM (inactive) | GI50 [10]: 9.48 µM (inactive) | GI50 [11]: 15.1 µM (inactive) | GI50 [12]: 14.6 µM (inactive) | GI50 [13]: 16.3 µM (inactive) | GI50 [14]: 14.7 µM (inactive) | GI50 [15]: 21.9 µM (inactive) | GI50 [16]: 13.1 µM (inactive) | GI50 [17]: 13.8 µM (inactive) | GI50 [18]: 3.29 µM (inactive) | GI50 [19]: 5.5 µM (inactive) | GI50 [20]: 20 µM (inactive)

CCOc1ccc(Nc2nc(N)nc(N)c2N)cc1
GI50 [1]: 45.2 µM (inactive) | GI50 [2]: 23.2 µM (inactive) | GI50 [3]: 28.6 µM (inactive) | GI50 [4]: > 100 µM (inactive) | GI50 [5]: 30.7 µM (inactive) | GI50 [6]: 13.6 µM (inactive) | GI50 [7]: 36.2 µM (inactive) | GI50 [8]: 47.2 µM (inactive) | GI50 [9]: 3.79 µM (inactive) | GI50 [10]: 19.8 µM (inactive) | GI50 [11]: 26.8 µM (inactive) | GI50 [12]: 30.5 µM (inactive) | GI50 [13]: 18.4 µM (inactive) | GI50 [14]: 29.6 µM (inactive) | GI50 [15]: 15.6 µM (inactive) | GI50 [16]: 17.9 µM (inactive) | GI50 [17]: 20.6 µM (inactive) | GI50 [18]: 0.472 µM (active) | GI50 [19]: > 100 µM (inactive) | GI50 [20]: 32.7 µM (inactive)

O=C(O)C(=Cc1ccc(-c2ccccc2)cc1)C(=O)O
GI50 [1]: 18 µM (inactive) | GI50 [2]: 8.79 µM (inactive) | GI50 [3]: 14.5 µM (inactive) | GI50 [4]: > 100 µM (inactive) | GI50 [5]: 10.4 µM (inactive) | GI50 [6]: 5.7 µM (inactive) | GI50 [7]: 9.75 µM (inactive) | GI50 [8]: 12.4 µM (inactive) | GI50 [9]: 19.1 µM (inactive) | GI50 [10]: 15.8 µM (inactive) | GI50 [11]: 6.87 µM (inactive) | GI50 [12]: 5.53 µM (inactive) | GI50 [13]: 15.1 µM (inactive) | GI50 [14]: > 39.5 µM (inactive) | GI50 [15]: 14.5 µM (inactive) | GI50 [16]: 18.6 µM (inactive) | GI50 [17]: 10.6 µM (inactive) | GI50 [18]: 1.49 µM (inactive) | GI50 [19]: 13.8 µM (inactive) | GI50 [20]: 12.3 µM (inactive)

COc1ccccc1N1C(=O)CS(=O)(=O)C1c1cccc(Oc2ccccc2)c1 (stereo not given)
GI50 [1]: 18.9 µM (inactive) | GI50 [2]: 16.9 µM (inactive) | GI50 [3]: 19.9 µM (inactive) | GI50 [4]: 20.8 µM (inactive) | GI50 [5]: 13.5 µM (inactive) | GI50 [6]: 4.06 µM (inactive) | GI50 [7]: 17.8 µM (inactive) | GI50 [8]: 16.6 µM (inactive) | GI50 [9]: 4.3 µM (inactive) | GI50 [10]: 13.9 µM (inactive) | GI50 [11]: 16.7 µM (inactive) | GI50 [12]: 18.7 µM (inactive) | GI50 [13]: 15 µM (inactive) | GI50 [14]: 26.2 µM (inactive) | GI50 [15]: 15.8 µM (inactive) | GI50 [16]: 16.7 µM (inactive) | GI50 [17]: 20 µM (inactive) | GI50 [18]: 5.57 µM (inactive) | GI50 [19]: 18.5 µM (inactive) | GI50 [20]: 12.1 µM (inactive)

CC(C)(C)c1ccc(C(O)(c2ccc(C(C)(C)C)cc2)c2ccc(C(C)(C)C)cc2)cc1
GI50 [1]: > 100 µM (inactive) | GI50 [2]: > 100 µM (inactive) | GI50 [3]: > 100 µM (inactive) | GI50 [4]: > 100 µM (inactive) | GI50 [5]: > 100 µM (inactive) | GI50 [6]: > 100 µM (inactive) | GI50 [7]: > 100 µM (inactive) | GI50 [8]: > 100 µM (inactive) | GI50 [9]: > 100 µM (inactive) | GI50 [10]: > 100 µM (inactive) | GI50 [11]: > 100 µM (inactive) | GI50 [12]: > 100 µM (inactive) | GI50 [13]: > 100 µM (inactive) | GI50 [14]: > 100 µM (inactive) | GI50 [15]: > 100 µM (inactive) | GI50 [16]: > 100 µM (inactive) | GI50 [17]: > 100 µM (inactive) | GI50 [18]: > 100 µM (inactive) | GI50 [19]: > 100 µM (inactive) | GI50 [20]: > 100 µM (inactive)

CN1CCN(CCCCNc2cc3c4ccccc4c(NCCCCN4CCN(C)CC4)cc3c3ccccc23)CC1
GI50 [1]: 1.37 µM (inactive) | GI50 [2]: 5.89 µM (inactive) | GI50 [3]: 9.77 µM (inactive) | GI50 [4]: 7.43 µM (inactive) | GI50 [5]: 0.604 µM (active) | GI50 [6]: 1.57 µM (inactive) | GI50 [7]: 0.962 µM (active) | GI50 [8]: 0.895 µM (active) | GI50 [9]: 0.317 µM (active) | GI50 [10]: 0.41 µM (active) | GI50 [11]: 2.09 µM (inactive) | GI50 [12]: 2.98 µM (inactive) | GI50 [13]: 1.36 µM (inactive) | GI50 [14]: 5.56 µM (inactive) | GI50 [15]: 1.9 µM (inactive) | GI50 [16]: 1.78 µM (inactive) | GI50 [17]: 3.38 µM (inactive) | GI50 [18]: 0.443 µM (active) | GI50 [19]: 6.95 µM (inactive) | GI50 [20]: 2.28 µM (inactive)

CC(=O)O[C@H]1CC[C@@]2(C)C(=CC[C@H]3[C@@H]4C[C@H](N5CCOCC5)[C@H](OC(C)=O)[C@@]4(C)CC[C@@H]32)C1
GI50 [1]: > 100 µM (inactive) | GI50 [2]: > 100 µM (inactive) | GI50 [3]: > 100 µM (inactive) | GI50 [4]: > 100 µM (inactive) | GI50 [5]: > 100 µM (inactive) | GI50 [6]: 25.4 µM (inactive) | GI50 [7]: > 100 µM (inactive) | GI50 [8]: > 100 µM (inactive) | GI50 [9]: > 100 µM (inactive) | GI50 [10]: > 100 µM (inactive) | GI50 [11]: > 100 µM (inactive) | GI50 [12]: > 100 µM (inactive) | GI50 [13]: > 100 µM (inactive) | GI50 [14]: > 100 µM (inactive) | GI50 [15]: > 100 µM (inactive) | GI50 [16]: > 100 µM (inactive) | GI50 [17]: 71.6 µM (inactive) | GI50 [18]: 86.5 µM (inactive) | GI50 [19]: > 100 µM (inactive) | GI50 [20]: > 100 µM (inactive)
